Laboratory results as given in ChEMBL document CHEMBL1201862, “PubChem BioAssay data set” (2004).
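Assay format: 96-well plates, 48-hour exposure. GI50 marks 50% less growth.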 The source made the active and inactive calls. Rule as the data show it: active = GI50 up to about 1.1 µM and inactive = higher.

Key:
Assay in all cases: NCI tumour cell line growth inhibition, 48 h
LOX IMVI = tested on: LOX IMVI
SN12C = tested on: SN12C
SW-620 = tested on: SW-620
IGROV-1 = tested on: IGROV-1
A549 = tested on: A549
TK-10 = tested on: TK-10
CCRF-CEM = tested on: CCRF-CEM
HCT-15 = tested on: HCT-15
ACHN = tested on: ACHN
COLO 205 = tested on: COLO 205
HOP-62 = tested on: HOP-62
SF-539 = tested on: SF-539
MCF7 = tested on: MCF7
UO-31 = tested on: UO-31
RPMI-8226 = tested on: RPMI-8226
MDA-N = tested on: MDA-N
SNB-19 = tested on: SNB-19
SR = tested on: SR
MDA-MB-435 = tested on: MDA-MB-435

Measured: GI50

O=c1c2cc([N+](=O)[O-])cnc2sn1-c1ccc([N+](=O)[O-])cc1
inactive: LOX IMVI 18.5 µM | SN12C 47.2 µM | SW-620 32.1 µM | IGROV-1 52.5 µM | A549 33 µM | TK-10 > 100 µM | CCRF-CEM 34.8 µM | ACHN 71.3 µM | COLO 205 16.9 µM | HOP-62 52 µM | SF-539 29.2 µM | MCF7 22.4 µM | UO-31 52 µM | RPMI-8226 23.9 µM | MDA-N 87.7 µM | SNB-19 30.1 µM | SR 22.1 µM | MDA-MB-435 84.1 µM
28.5 µM: HCT-15

O=C(N/N=C/C=C/c1ccc([N+](=O)[O-])o1)c1ccc(C(=O)N/N=C/C=C/c2ccc([N+](=O)[O-])o2)cc1
37.4 µM: HCT-15
inactive: LOX IMVI 28.1 µM | SN12C > 37.9 µM | SW-620 19.1 µM | IGROV-1 46.8 µM | A549 > 100 µM | TK-10 31.8 µM | CCRF-CEM 1.93 µM | ACHN 32.6 µM | COLO 205 36 µM | HOP-62 46.7 µM | SF-539 6.18 µM | MCF7 34.4 µM | UO-31 > 67.6 µM | RPMI-8226 7.62 µM | MDA-N 29.5 µM | SNB-19 43.3 µM | SR 17.3 µM | MDA-MB-435 37.2 µM

O=C1Nc2ccccc2/C1=C1/Nc2ccccc2/C1=N\OCCOC1OCC(O)C(O)C1O (centres undefined)
inactive: LOX IMVI 8.59 µM | SN12C > 100 µM | SW-620 > 100 µM | IGROV-1 5.35 µM | A549 > 100 µM | TK-10 81.3 µM | CCRF-CEM > 100 µM | ACHN > 100 µM | COLO 205 31 µM | HOP-62 6.38 µM | SF-539 > 100 µM | MCF7 53.2 µM | UO-31 > 100 µM | RPMI-8226 > 100 µM | MDA-N > 100 µM | SNB-19 > 100 µM | SR 33 µM | MDA-MB-435 > 100 µM
> 100 µM: HCT-15

C=C=C(C)[Si](C)(C)C
> 100 µM: HCT-15
inactive: LOX IMVI > 100 µM | SN12C > 100 µM | SW-620 90.6 µM | IGROV-1 71.1 µM | A549 > 100 µM | TK-10 > 100 µM | CCRF-CEM > 100 µM | ACHN > 100 µM | COLO 205 > 100 µM | HOP-62 > 100 µM | SF-539 > 100 µM | MCF7 > 100 µM | UO-31 > 100 µM | RPMI-8226 > 100 µM | MDA-N > 100 µM | SNB-19 > 100 µM | SR > 100 µM | MDA-MB-435 > 100 µM

N=C(N)NCCCC(NC(=O)c1c2ccccc2nc2ccccc12)C(=O)O (centres undefined)
> 100 µM: HCT-15
inactive: LOX IMVI > 100 µM | SN12C > 100 µM | SW-620 > 100 µM | IGROV-1 > 100 µM | A549 > 100 µM | TK-10 > 100 µM | CCRF-CEM > 100 µM | ACHN > 100 µM | COLO 205 > 100 µM | HOP-62 > 100 µM | SF-539 > 100 µM | MCF7 > 100 µM | UO-31 > 100 µM | RPMI-8226 > 100 µM | MDA-N > 100 µM | SNB-19 > 100 µM | SR > 100 µM | MDA-MB-435 > 100 µM

COc1cccc2c(N)c3cccc(C(=O)NCCN(C)C)c3nc12
active: LOX IMVI 0.0513 µM | SN12C 0.0389 µM | SW-620 0.0968 µM | IGROV-1 0.22 µM | A549 0.0233 µM | TK-10 0.439 µM | CCRF-CEM < 0.01 µM | ACHN 0.0991 µM | COLO 205 0.13 µM | HOP-62 0.0578 µM | SF-539 0.135 µM | MCF7 0.0146 µM | UO-31 0.462 µM | RPMI-8226 0.221 µM | MDA-N 0.321 µM | SNB-19 0.134 µM | SR 0.0152 µM | MDA-MB-435 0.422 µM
1.38 µM: HCT-15

O=C(Nc1ccc(Cl)cc1Cl)C1C(=O)OC2(CCCCC2)OC1=O
14.6 µM: HCT-15
inactive: LOX IMVI 6.22 µM | SN12C 14.7 µM | SW-620 5.52 µM | IGROV-1 5.98 µM | A549 4.71 µM | TK-10 14.1 µM | CCRF-CEM 4.24 µM | ACHN 6.07 µM | COLO 205 10.4 µM | HOP-62 4.38 µM | SF-539 9.66 µM | MCF7 7.29 µM | UO-31 2.94 µM | RPMI-8226 4.16 µM | MDA-N 15.7 µM | SNB-19 5.26 µM | SR 5.97 µM | MDA-MB-435 8.2 µM

O=C(O)C(Cc1c[nH]c2ccccc12)C(=O)NO (centres undefined)
inactive: LOX IMVI > 100 µM | SN12C > 100 µM | SW-620 95.5 µM | IGROV-1 > 100 µM | A549 > 100 µM | TK-10 > 100 µM | CCRF-CEM 39.8 µM | ACHN > 100 µM | COLO 205 > 100 µM | HOP-62 > 100 µM | SF-539 > 100 µM | MCF7 > 100 µM | UO-31 > 100 µM | RPMI-8226 > 100 µM | MDA-N > 100 µM | SNB-19 > 100 µM | SR > 100 µM | MDA-MB-435 > 100 µM
> 100 µM: HCT-15

CC(=O)Nc1ccc(-c2nc3ccccc3s2)cc1Br
> 59.7 µM: HCT-15
inactive: LOX IMVI 71.1 µM | SN12C > 78.9 µM | SW-620 > 100 µM | A549 > 86.9 µM | CCRF-CEM > 100 µM | ACHN 63.4 µM | COLO 205 > 86.7 µM | HOP-62 7.53 µM | SF-539 27.3 µM | UO-31 25.5 µM | RPMI-8226 > 92.9 µM | MDA-N > 100 µM | SNB-19 37.5 µM | SR > 100 µM | MDA-MB-435 > 100 µM
active: IGROV-1 0.0124 µM | TK-10 0.142 µM | MCF7 0.141 µM

COc1ccc2cc(CNCCOCCOCCNCc3ccc4cc(OC)ccc4c3)ccc2c1
0.527 µM: HCT-15
inactive: SN12C 1.72 µM | IGROV-1 1.63 µM | A549 1.58 µM | TK-10 1.54 µM | ACHN 1.6 µM | HOP-62 1.69 µM | SF-539 1.54 µM | UO-31 1.32 µM | SNB-19 1.49 µM
active: LOX IMVI 0.467 µM | SW-620 0.348 µM | CCRF-CEM 0.341 µM | COLO 205 0.162 µM | MCF7 0.887 µM | RPMI-8226 0.209 µM | MDA-N 0.889 µM | SR 0.251 µM | MDA-MB-435 0.494 µM

CCCCCC(=O)Nc1[nH]cnc1C(N)=O
inactive: LOX IMVI > 100 µM | SN12C > 100 µM | SW-620 > 100 µM | IGROV-1 > 100 µM | A549 > 100 µM | TK-10 > 100 µM | CCRF-CEM > 100 µM | ACHN > 100 µM | COLO 205 > 100 µM | HOP-62 > 100 µM | SF-539 > 100 µM | MCF7 > 100 µM | UO-31 > 100 µM | RPMI-8226 > 100 µM | MDA-N > 100 µM | SNB-19 > 100 µM | SR > 100 µM | MDA-MB-435 > 100 µM
> 100 µM: HCT-15
